System: NB4 cells
Test: Annexin V staining
Type: cell-based, human
Method: Annexin V staining. Cells were washed in phosphate-buffered saline (PBS) and resuspended in 100 μl of binding buffer containing Annexin V (Roche Diagnostic Corporation, Indianapolis, Ind.). Cells were analyzed by flow cytometry after the addition of propidium iodide (PI). Annexin V binds to those cells that express phosphatidylserine on the outer layer of the cell membrane, and PI stains the cellular DNA of those cells with a compromised cell membrane. This allows for live cells (unstained with either fluorochrome) to be discriminated from apoptotic cells (stained only with annexin V) and necrotic cells (stained with both annexin and PI).
Mechanisms of CDDO-induced apoptosis in leukemia cell lines and in primary AML samples were also determined. The involvement of the death receptor/Fas pathway was studied in NB4 cells. Treatment with 0.5 μM CDDO induced cell surface Fas/CD95 expression at 48 hours (MFI 34.8 vs 24.8 in DMSO-treated cells and 26 in untreated control). At this concentration, 22.3% of cells were annexin V positive compared with 11.4% in DMSO-controls. At 1 μM, 56.3% of cells were apoptotic. Similarly, 1 μM CDDO induced Fas expression in 7/12 AML CD34+ cells (MFI, 22.3±3.5 in DMSO-controls, 40±4.3 in CDDO-treated CD34+ cells, p<0.01).

For `CC1(C)CCC2(C(=O)O)CCC3(C)C(C(=O)C=C4C5(C)C=C(C#N)C(=O)C(C)(C)C5CCC43C)C2C1` (centres unmarked) [CDDO, 2-cyano-3,12-dioxoolen-1,9-dien-28-oic acid], the “annexin V positive cells” value (0.5 μM (11.4% in DMSO-controls)) was 22.3% and the apoptotic cells (1 μM) was 56.3%.

Reference: patent US7795305B2, “CDDO-compounds and combination therapies thereof” (Board of Regents, The University of Texas System, priority 2000, dated 2010)
